Laboratory results reported in patent publication US20100280047A1, “SALTS OF ACTIVE INGREDIENTS WITH POLYMERIC COUNTER-IONS” (BASF SE, priority 2007, published 2010).

Columns and labels:
[1] = Saturation solubility of haloperidol in aqueous polymer solutions (HPLC of filtrate); type: physicochemical
Method: 1.0 g of haloperidol (free base) was added to 100.0 ml of aqueous polymer solution and stirred for 72 h. […] The undissolved amount of haloperidol was filtered off. The content of haloperidol in the filtrate was determined by HPLC.
For comparison, the saturation solubility of haloperidol was determined in demineralized water, as well as in hydrochloric acid. In the latter case, the corresponding haloperidol hydrochloride is formed.

[2] = Saturation solubility of loperamide in aqueous polymer solutions (HPLC of filtrate); type: physicochemical
Method: 1.0 g of loperamide (free base) was added to 100.0 ml of aqueous polymer solution and stirred for 72 h. […] The undissolved amount of loperamide was filtered off. The content of loperamide in the filtrate was determined by HPLC.
For comparison, the saturation solubility of loperamide was determined in demineralized water, as well as in hydrochloric acid. In the case of the latter, the corresponding loperamide hydrochloride is formed.

| SMILES | Concentration of dissolved haloperidol ([1]; 10% by wt. polymer D in water, stirred 72 h, pH of filtered solution 3.2) [µg/mL] | Concentration of dissolved haloperidol ([1]; 20% by wt. polymer A in water, stirred 72 h, pH of filtered solution 3.0) [µg/mL] | Concentration of dissolved haloperidol ([1]; 20% by wt. polymer C in water, stirred 72 h, pH of filtered solution 3.3) [µg/mL] | Concentration of dissolved haloperidol ([1]; 20% by wt. polymer D in water, stirred 72 h, pH of filtered solution 3.0) [µg/mL] | Concentration of dissolved haloperidol ([1]; 20% solution of polymer A plus NaOH to pH 10, pH of filtered solution 10.1) [µg/mL] | Concentration of dissolved haloperidol ([1]; demineralized water, 0% polymer, stirred 72 h, pH of filtered solution 7.5) [µg/mL] | Concentration of dissolved haloperidol ([1]; hydrochloric acid 10%, no polymer (haloperidol hydrochloride is formed)) [µg/mL] | Concentration of dissolved loperamide ([2]; 10% by wt. polymer A in water, stirred 72 h, pH of filtered solution 2.5) [µg/mL] | Concentration of dissolved loperamide ([2]; 10% by wt. polymer B in water, stirred 72 h, pH of filtered solution 2.0) [µg/mL] | Concentration of dissolved loperamide ([2]; 20% by wt. polymer A in water, stirred 72 h) [µg/mL] | Concentration of dissolved loperamide ([2]; 20% by wt. polymer D in water, stirred 72 h, pH of filtered solution 1.9) [µg/mL] | Concentration of dissolved loperamide ([2]; demineralized water, 0% polymer, stirred 72 h) [µg/mL] | Concentration of dissolved loperamide ([2]; hydrochloric acid 10%, no polymer (loperamide hydrochloride is formed)) [µg/mL] |
| --- | --- | --- | --- | --- | --- | --- | --- | --- | --- | --- | --- | --- | --- |
| O=C(CCCN1CCC(O)(c2ccc(Cl)cc2)CC1)c1ccc(F)cc1 [haloperidol] | 5200 | 10300 | 7700 | 15100 | <74 | <17.8 | <16 | – | – | – | – | – | – |
| CN(C)C(=O)C(CCN1CCC(O)(c2ccc(Cl)cc2)CC1)(c1ccccc1)c1ccccc1 [loperamide] | – | – | – | – | – | – | – | 6200 | 3900 | 7600 | 5900 | <17 | <14.9 |
